Results on 1 compound are retold here after patent US6783949B1, “Processes for determining whether a test substance contains lipases or lipase inhibitors” (Aventis Pharma Deutschland GmbH, priority 1999, dated 2004).

pIC50: −log10 of the molar value.

The assay addresses T1, HSL (Rattus norvegicus, UniProt P15304).
T1 construct: The partially purified HSL can be stored at −70° C. for 4 to 6 weeks; from tissue; host or cells: rat epididymal fat cells (male Wistar rats)
T1 sequence (P15304 1-768 isoform P15304-2): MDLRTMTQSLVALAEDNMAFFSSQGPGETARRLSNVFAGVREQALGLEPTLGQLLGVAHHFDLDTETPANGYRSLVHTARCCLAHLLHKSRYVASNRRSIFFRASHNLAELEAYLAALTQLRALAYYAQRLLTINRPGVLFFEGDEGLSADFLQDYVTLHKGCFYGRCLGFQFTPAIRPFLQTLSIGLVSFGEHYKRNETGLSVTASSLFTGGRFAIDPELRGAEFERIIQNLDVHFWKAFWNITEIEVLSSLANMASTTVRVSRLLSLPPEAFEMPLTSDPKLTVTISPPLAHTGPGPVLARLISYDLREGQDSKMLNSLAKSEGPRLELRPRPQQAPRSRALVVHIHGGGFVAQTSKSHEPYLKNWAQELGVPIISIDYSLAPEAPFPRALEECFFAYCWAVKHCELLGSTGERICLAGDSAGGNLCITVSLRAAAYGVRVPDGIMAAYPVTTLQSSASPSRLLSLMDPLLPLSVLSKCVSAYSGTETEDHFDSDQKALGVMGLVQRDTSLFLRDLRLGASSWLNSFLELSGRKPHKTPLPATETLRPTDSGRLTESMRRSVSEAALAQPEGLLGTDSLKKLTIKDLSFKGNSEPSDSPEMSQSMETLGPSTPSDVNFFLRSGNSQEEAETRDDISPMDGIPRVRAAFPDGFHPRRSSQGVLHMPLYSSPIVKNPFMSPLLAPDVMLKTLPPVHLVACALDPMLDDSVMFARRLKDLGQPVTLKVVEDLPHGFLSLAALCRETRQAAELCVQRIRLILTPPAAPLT
Kind of assay: Tributyrin assay. The settings on record: Example 6, Table 6; n=5, mean±SD. It counts as biochemical. As to the method: Isolated rat fat cells are obtained from epididymal fatty tissue from untreated male rats (Wistar, 220-250 g) by collagenase treatment according to published processes. The fat cells from 10 rats are washed three times by flotation with 50 ml each of homogenization buffer ([…], pH 7.4, 0.25 M sucrose, 1 mM ethylenediamine-N,N,N′,N′-tetraacetic acid (EDTA), 1 mM dithiothreitol (DTT), 10 μg/ml of leupeptin, 10 μg/ml of antipain, 20 μg/ml of pepstatin) and finally taken up in 10 ml of homogenization buffer. The fat cells are homogenized in a Teflon-in-glass homogenizer (Braun-Melsungen) by 10 strokes at 1500 rpm and 15° C. The homogenizate is centrifuged (Sorvall SM24 tubes, 5000 rpm, 10 min, 4° C.). […]
For the preparation of the substrate, 5 μCi of [1-^14C]tributyrin (in toluene) are added to 1 ml of 20 mM unlabeled tributyrin (in acetonitrile). […] An equivalent volume (1 ml) of the upper phase is taken and the radioactivity is determined by liquid scintillation measurement.
Substances are customarily tested in four independent batches. The inhibition of the enzymatic activity of the HSL by a test substance is determined by comparison with an uninhibited control reaction. The IC50 value is calculated by means of an inhibition curve using at least 10 concentrations of the test substance. […]

In general, pIC50 refers to the negative decadic logarithm of the IC50, by convention in mol/L. The low end stands for a high IC50, the high end for a low IC50. For `O=C(CCCCCCCCCCCNc1ccc([N+](=O)[O-])c2nonc12)OCC(O)CO` (racemic) [Compound 3], the negative-log IC50 (pIC50) is < 4.00.
